pIC50: −log10 of the molar value.
Tested on: 362531-283-R-J2-PDC complex spheroid viability
Experiment: Anticancer human tumor 362531-283-R-J2-PDC patient-derived colon adenocarcinoma cell line growth inhibition [RAS]
Conditions: for viability, T/C: stronger effect = lower value
How it was run: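 Tumour cells grown as complex spheroids with HUVEC endothelial cells and mesenchymal stem cells, treated with RAS pathway inhibitor combinations. Each agent spans half-log steps from near clinical Cmax, or 10 microM where Cmax is unknown.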
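Note: spheroids exposed to the agents for 7 days before readout.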
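Throughout, for viability, T/C: luminescence viability as percent of DMSO vehicle control wells.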

SMILES: CC(=O)OC12COC1CC(O)C1(C)C(=O)C(O)C3=C(C)C(OC(=O)C(O)C(NC(=O)OC(C)(C)C)c4ccccc4)CC(O)(C(OC(=O)c4ccccc4)C21)C3(C)C (centres undefined) + C=CC(=O)N1CCN(c2nc(OCC3CCCN3C)nc3c(F)c(-c4nc(N)cc(C)c4C(F)(F)F)c(Cl)cc23)C(C)C1
- pIC50 (curve of first compound, second compound 0.00316 µM): 6.69
- pIC50 (curve of first compound, second compound 0.01 µM): 6.68
- pIC50 (curve of first compound, second compound 0.0316 µM): 6.67
- pIC50 (curve of first compound, second compound 0.1 µM): 6.68
- pIC50 (curve of first compound, second compound 0.316 µM): 6.71
- pIC50 (curve of first compound, second compound 1 µM): 6.66
- viability, T/C (second compound 0.00316 µM, first compound 0.0316 µM): 96.7%
- viability, T/C (second compound 0.00316 µM, first compound 0.1 µM): 87.7%
- viability, T/C (second compound 0.00316 µM, first compound 0.316 µM): 24.6%
- viability, T/C (second compound 0.00316 µM, first compound 1 µM): 20.6%
- viability, T/C (second compound 0.00316 µM, first compound 3.16 µM): 25.6%
- viability, T/C (second compound 0.00316 µM, first compound 10 µM): 39.1%
- viability, T/C (second compound 0.01 µM, first compound 0.0316 µM): 106%
- viability, T/C (second compound 0.01 µM, first compound 0.1 µM): 87.8%
- viability, T/C (second compound 0.01 µM, first compound 0.316 µM): 24.2%
- viability, T/C (second compound 0.01 µM, first compound 1 µM): 22.8%
- viability, T/C (second compound 0.01 µM, first compound 3.16 µM): 25.5%
- viability, T/C (second compound 0.01 µM, first compound 10 µM): 39.8%
- viability, T/C (second compound 0.0316 µM, first compound 0.0316 µM): 99.4%
- viability, T/C (second compound 0.0316 µM, first compound 0.1 µM): 94.3%
- viability, T/C (second compound 0.0316 µM, first compound 0.316 µM): 21.5%
- viability, T/C (second compound 0.0316 µM, first compound 1 µM): 22.2%
- viability, T/C (second compound 0.0316 µM, first compound 3.16 µM): 25.2%
- viability, T/C (second compound 0.0316 µM, first compound 10 µM): 37.3%
- viability, T/C (second compound 0.1 µM, first compound 0.0316 µM): 97.4%
- viability, T/C (second compound 0.1 µM, first compound 0.1 µM): 89.1%
- viability, T/C (second compound 0.1 µM, first compound 0.316 µM): 27%
- viability, T/C (second compound 0.1 µM, first compound 1 µM): 20.1%
- viability, T/C (second compound 0.1 µM, first compound 3.16 µM): 27.3%
- viability, T/C (second compound 0.1 µM, first compound 10 µM): 40.2%
- viability, T/C (second compound 0.316 µM, first compound 0.0316 µM): 107%
- viability, T/C (second compound 0.316 µM, first compound 0.1 µM): 76.4%
- viability, T/C (second compound 0.316 µM, first compound 0.316 µM): 25.3%
- viability, T/C (second compound 0.316 µM, first compound 1 µM): 18%
- viability, T/C (second compound 0.316 µM, first compound 3.16 µM): 34.6%
- viability, T/C (second compound 0.316 µM, first compound 10 µM): 44.1%
- viability, T/C (second compound 1 µM, first compound 0.0316 µM): 106%
- viability, T/C (second compound 1 µM, first compound 0.1 µM): 86.4%
- viability, T/C (second compound 1 µM, first compound 0.316 µM): 27.3%
- viability, T/C (second compound 1 µM, first compound 1 µM): 23.4%
- viability, T/C (second compound 1 µM, first compound 3.16 µM): 35.1%
- viability, T/C (second compound 1 µM, first compound 10 µM): 45.5%

SMILES: C=CC(=O)N1CCN(c2nc(OCC3CCCN3C)nc3c(F)c(-c4nc(N)cc(C)c4C(F)(F)F)c(Cl)cc23)C(C)C1 (centres undefined)
- viability, T/C (compound 0.00316 µM): 104% [middle of 12 runs]
- viability, T/C (compound 0.01 µM): 108% [middle of 12 runs]
- viability, T/C (compound 0.0316 µM): 102% [middle of 12 runs]
- viability, T/C (compound 0.1 µM): 102% [middle of 12 runs]
- viability, T/C (compound 0.316 µM): 102% [middle of 12 runs]
- pIC50 (compound alone, run of 07/15/2024): < 6.00
- pIC50 (curve of compound): < 6.00

Reference: PubChem BioAssay AID2060909 (Molecular Pharmacology Branch, DTP, NCI, 2025)
